Laboratory results: ChEMBL document CHEMBL1133412, “Rational design, synthesis and structure-activity relationships of antitumor (E)-2-benzylidene-1-tetralones and (E)-2-benzylidene-1-indanones” (Bioorg Med Chem Lett, 2000)
pIC50: −log10 of the molar value. Active and inactive are the calls of the source. The rule behind the calls is not given here.

Assays:
Format in all cases: functional, cell-based
WI-38 [1] = assay: Cytotoxicity was evaluated against WI38 tumor cell lines; Slightly active; conditions: Homo sapiens
A549 [2] = assay: Cytotoxicity was evaluated against A549 tumor cell lines; Slightly active; conditions: Homo sapiens
Jurkat = assay: In vitro test for antitumor activity against human Jurkat cell line using a formazan dye (MTT) conversion assay.
MCF7 [3] = assay: Cytotoxicity was evaluated against MCF-7 tumor cell lines; Slightly active; conditions: Homo sapiens
WIL2 [4] = assay: Cytotoxicity was evaluated against WIL2 tumor cell lines; Slightly active; conditions: Homo sapiens
B16 [5] = assay: Cytotoxicity was evaluated against B16 tumor cell lines; Slightly active; conditions: Mus musculus
K562 [6] = assay: Cytotoxicity was evaluated against K562 tumor cell lines; Slightly active; conditions: Homo sapiens
L1210 [7] = assay: Cytotoxicity was evaluated against L1210 tumor cell lines; Slightly active; conditions: Mus musculus
HL-60 [8] = assay: Cytotoxicity was evaluated against HL-60 tumor cell lines; Slightly active; conditions: Homo sapiens
CCRF-CEM [9] = assay: Cytotoxicity was evaluated against CEM tumor cell lines; Slightly active; conditions: Homo sapiens
NCI-H596 [10] = assay: Cytotoxicity was evaluated against H596 tumor cell lines; Slightly active; conditions: Homo sapiens
MOLT-4 [11] = assay: Cytotoxicity was evaluated against Molt-4 tumor cell lines; Slightly active; conditions: Homo sapiens
NCI-H292 [12] = assay: Cytotoxicity was evaluated against H292 tumor cell lines; Slightly active; conditions: Homo sapiens
NIH3T3 [13] = assay: Cytotoxicity was evaluated against NIH3T3 tumor cell lines; Slightly active; conditions: Mus musculus
CCRF-CEM [14] = assay: Cytotoxicity was evaluated against CEM tumor cell lines; Inactive; conditions: Homo sapiens
NIH3T3 [15] = assay: Cytotoxicity was evaluated against NIH3T3 tumor cell lines; Inactive; conditions: Mus musculus
NCI-H596 [16] = assay: Cytotoxicity was evaluated against H596 tumor cell lines; Inactive; conditions: Homo sapiens
A549 [17] = assay: Cytotoxicity was evaluated against A549 tumor cell lines; Inactive; conditions: Homo sapiens
HL-60 [18] = assay: Cytotoxicity was evaluated against HL-60 tumor cell lines; Inactive; conditions: Homo sapiens
MOLT-4 [19] = assay: Cytotoxicity was evaluated against Molt-4 tumor cell lines; Inactive; conditions: Homo sapiens
MCF7 [20] = assay: Cytotoxicity was evaluated against MCF-7 tumor cell lines; Inactive; conditions: Homo sapiens
B16 [21] = assay: Cytotoxicity was evaluated against B16 tumor cell lines; Inactive; conditions: Mus musculus
NCI-H292 [22] = assay: Cytotoxicity was evaluated against H292 tumor cell lines; Inactive; conditions: Homo sapiens
WI-38 [23] = assay: Cytotoxicity was evaluated against WI38 tumor cell lines; Inactive; conditions: Homo sapiens
L1210 [24] = assay: Cytotoxicity was evaluated against L1210 tumor cell lines; Inactive; conditions: Mus musculus
K562 [25] = assay: Cytotoxicity was evaluated against K562 tumor cell lines; Inactive; conditions: Homo sapiens
WIL2 [26] = assay: Cytotoxicity was evaluated against WIL2 tumor cell lines; Inactive; conditions: Homo sapiens

Row | SMILES | Cytotoxicity (WI-38 [1]) | Cytotoxicity (A549 [2]) | pIC50 (Jurkat) | Cytotoxicity (MCF7 [3]) | Cytotoxicity (WIL2 [4]) | Cytotoxicity (B16 [5]) | Cytotoxicity (K562 [6]) | Cytotoxicity (CCRF-CEM [14]) | Cytotoxicity (NIH3T3 [15]) | Cytotoxicity (NCI-H596 [16]) | Cytotoxicity (A549 [17]) | Cytotoxicity (HL-60 [18]) | Cytotoxicity (MOLT-4 [19]) | Cytotoxicity (MCF7 [20]) | Cytotoxicity (B16 [21]) | Cytotoxicity (NCI-H292 [22]) | Cytotoxicity (WI-38 [23]) | Cytotoxicity (L1210 [24]) | Cytotoxicity (K562 [25]) | Cytotoxicity (WIL2 [26]) | further results
1 | COc1cc2c(cc1OC)C(=O)/C(=C/c1ccc(N)cc1)CC2 | Weak activity | Weak activity | 4.40 | Weak activity | Weak activity | Weak activity | Weak activity |  |  |  |  |  |  |  |  |  |  |  |  |  | Cytotoxicity (L1210 [7]): Weak activity; Cytotoxicity (HL-60 [8]): Weak activity; Cytotoxicity (CCRF-CEM [9]): Weak activity; Cytotoxicity (NCI-H596 [10]): Weak activity; Cytotoxicity (MOLT-4 [11]): Weak activity; Cytotoxicity (NCI-H292 [12]): Weak activity; Cytotoxicity (NIH3T3 [13]): Weak activity
2 | COc1ccc(/C=C2\CCc3cc(OC)c(OC)cc3C2=O)cc1 |  |  | < 4.30 |  |  |  |  | inactive | inactive | inactive | inactive | inactive | inactive | inactive | inactive | inactive | inactive | inactive | inactive | inactive | 
3 | Cc1cc(/C=C2\Cc3cc4c(cc3C2=O)OCO4)cc(C)c1O |  |  | < 4.30 |  |  |  |  | inactive | inactive | inactive | inactive | inactive | inactive | inactive | inactive | inactive | inactive | inactive | inactive | inactive | 
4 | COc1cc2c(cc1OC)C(=O)/C(=C/c1cc(C)c([N+](=O)[O-])c(C)c1)C2 | Weak activity | Weak activity | 4.60 | Weak activity | Weak activity | Weak activity | Weak activity |  |  |  |  |  |  |  |  |  |  |  |  |  | Cytotoxicity (L1210 [7]): Weak activity; Cytotoxicity (HL-60 [8]): Weak activity; Cytotoxicity (CCRF-CEM [9]): Weak activity; Cytotoxicity (NCI-H596 [10]): Weak activity; Cytotoxicity (MOLT-4 [11]): Weak activity; Cytotoxicity (NCI-H292 [12]): Weak activity; Cytotoxicity (NIH3T3 [13]): Weak activity
5 | COc1cc2c(c([N+](=O)[O-])c1OC)C(=O)/C(=C/c1cc(C)c([N+](=O)[O-])c(C)c1)C2 |  |  | < 4.30 |  |  |  |  | inactive | inactive | inactive | inactive | inactive | inactive | inactive | inactive | inactive | inactive | inactive | inactive | inactive | 
6 | COc1cc2c(cc1OC)C(=O)/C(=C/c1cccc([N+](=O)[O-])c1)C2 | Weak activity | Weak activity | 4.66 | Weak activity | Weak activity | Weak activity | Weak activity |  |  |  |  |  |  |  |  |  |  |  |  |  | Cytotoxicity (L1210 [7]): Weak activity; Cytotoxicity (HL-60 [8]): Weak activity; Cytotoxicity (CCRF-CEM [9]): Weak activity; Cytotoxicity (NCI-H596 [10]): Weak activity; Cytotoxicity (MOLT-4 [11]): Weak activity; Cytotoxicity (NCI-H292 [12]): Weak activity; Cytotoxicity (NIH3T3 [13]): Weak activity
7 | COc1ccc2c(c1)C/C(=C\c1cc(C)c(O)c(C)c1)C2=O |  |  | < 4.30 |  |  |  |  | inactive | inactive | inactive | inactive | inactive | inactive | inactive | inactive | inactive | inactive | inactive | inactive | inactive | 
8 | O=C1/C(=C/c2cc(Cl)cc(Cl)c2)Cc2cc(O)c(O)cc21 |  |  | < 4.30 |  |  |  |  | inactive | inactive | inactive | inactive | inactive | inactive | inactive | inactive | inactive | inactive | inactive | inactive | inactive | 
